# Results published in PubChem BioAssay (NCI).
#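 Grown in 96-well plates, cells were treated for 48 hours with each compound at five concentrations. Insufficient inhibition: endpoint recorded as highest concentration tested. TGI: concentration producing complete growth inhibition.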
# What was measured:
# Assay in all cases: NCI tumour cell line growth inhibition, 48 h
# [1] = test system: LOX IMVI melanoma
# [2] = test system: NCI-H23 lung
# [3] = test system: K-562 leukemia
# [4] = test system: NCI-H460 lung
# [5] = test system: SF-295 CNS
# [6] = test system: 786-0 renal
# [7] = test system: M14 melanoma
# [8] = test system: TK-10 renal
# [9] = test system: CCRF-CEM leukemia
# [10] = test system: COLO 205 colon
# [11] = test system: IGROV1 ovarian
# [12] = test system: RPMI-8226 leukemia
# [13] = test system: SN12C renal
# [14] = test system: OVCAR-8 ovarian
# [15] = test system: T-47D breast
# [16] = test system: U251 CNS
# [17] = test system: SK-MEL-28 melanoma
# [18] = test system: HL-60(TB) leukemia
# [19] = test system: MALME-3M melanoma
Compound,TGI [1],TGI [2],TGI [3],TGI [4],TGI [5],TGI [6],TGI [7],TGI [8],TGI [9],TGI [10],TGI [11],TGI [12],TGI [13],TGI [14],TGI [15],TGI [16],TGI [17],TGI [18],TGI [19]
COC(=O)c1cc(/C=C\c2cc(OC)ccc2OC)ccc1OC,56.9 µM,> 100 µM,86 µM,> 100 µM,> 100 µM,> 100 µM,84.2 µM,> 100 µM,> 100 µM,59.7 µM,42.2 µM,44.5 µM,> 100 µM,> 100 µM,52.1 µM,> 100 µM,59.7 µM,–,–
COc1cc(C(C#N)NNc2nc(C)cc(=O)[nH]2)cc(OC)c1OC (configuration not stated),> 100 µM,> 100 µM,> 100 µM,> 100 µM,> 100 µM,> 100 µM,> 100 µM,> 100 µM,> 100 µM,> 100 µM,> 100 µM,> 100 µM,> 100 µM,> 100 µM,–,> 100 µM,> 100 µM,> 100 µM,> 100 µM
CC(C)[Si](OCC1CC(C#N)OC(C)(C)O1)(C(C)C)C(C)C (configuration not stated),33.7 µM,65.8 µM,37.9 µM,30.8 µM,29.3 µM,35.2 µM,48.4 µM,> 100 µM,39.1 µM,31.7 µM,> 100 µM,33.8 µM,> 100 µM,48 µM,–,30 µM,> 100 µM,29.3 µM,57.6 µM
CC(C)=NOC(=O)Nc1cccc2c1OCO2,> 100 µM,> 100 µM,–,> 100 µM,> 100 µM,> 100 µM,> 100 µM,> 100 µM,–,> 100 µM,> 100 µM,> 100 µM,> 100 µM,> 100 µM,> 100 µM,> 100 µM,> 100 µM,–,> 100 µM
C=CCNC(=S)/N=C/C(C(=O)Nc1ccccc1C)=C(\C)O,> 100 µM,> 100 µM,> 100 µM,> 100 µM,> 100 µM,> 100 µM,> 100 µM,> 100 µM,–,> 100 µM,> 100 µM,> 100 µM,> 100 µM,> 100 µM,> 100 µM,> 100 µM,–,> 100 µM,–
Nc1cc2c3c(cccc3c1)C(=O)N(c1ccc(OCCN3CCCC3)cc1)C2=O,48.5 µM,28.2 µM,49.2 µM,23.7 µM,27.4 µM,31.5 µM,51.2 µM,35.6 µM,69 µM,35.2 µM,36.4 µM,56.3 µM,> 66.7 µM,35.8 µM,51.6 µM,64.6 µM,47 µM,–,35.9 µM
O=C(O)c1ccc(N/C(=C(/C(Cl)=C(Cl)Cl)[N+](=O)[O-])n2nnc3ccccc32)cc1,–,> 100 µM,> 100 µM,> 100 µM,> 100 µM,> 100 µM,> 100 µM,–,> 100 µM,> 100 µM,–,> 100 µM,> 100 µM,> 100 µM,> 100 µM,> 100 µM,> 100 µM,–,> 100 µM
O=C(Cc1ccccc1)NN1C(=O)/C(=C\c2ccccc2O)SC1=Nc1ccccc1,–,> 100 µM,–,> 100 µM,> 100 µM,> 100 µM,> 100 µM,> 100 µM,–,> 100 µM,> 100 µM,> 100 µM,> 100 µM,> 100 µM,> 100 µM,> 100 µM,> 100 µM,–,–
COc1ccc(-n2cnc3c(NC(Cc4ccccc4)C(=O)O)ncnc32)cc1 (configuration not stated),> 100 µM,> 100 µM,> 100 µM,> 100 µM,> 100 µM,> 100 µM,> 100 µM,> 100 µM,> 100 µM,> 100 µM,> 100 µM,> 100 µM,> 100 µM,> 100 µM,> 100 µM,> 100 µM,> 100 µM,–,–
COc1ccc2c(c1)CCC/C2=N\NS(=O)(=O)c1c(C)cc(C)cc1C,43 µM,72.4 µM,41.6 µM,95.3 µM,94.6 µM,37.8 µM,> 100 µM,> 100 µM,63.7 µM,57.2 µM,55 µM,–,45.5 µM,85.3 µM,53.9 µM,> 100 µM,> 100 µM,–,48.8 µM
CCOC(=O)C(C(=O)COC(C)(C)C)[C@@H]1C=C[C@H](OC(C)=O)C1 (some centres not stated),–,> 100 µM,> 100 µM,> 100 µM,> 100 µM,> 100 µM,> 100 µM,–,> 100 µM,> 100 µM,–,> 100 µM,> 100 µM,–,> 100 µM,> 100 µM,> 100 µM,–,> 100 µM
CCOC(=O)CC(NC(=O)c1ccc(N=NN(C)C)cc1)C(=O)OCC (configuration not stated),> 100 µM,> 100 µM,> 100 µM,> 100 µM,> 100 µM,> 100 µM,> 100 µM,> 100 µM,> 100 µM,> 100 µM,> 100 µM,> 100 µM,> 100 µM,> 100 µM,–,> 100 µM,> 100 µM,> 100 µM,> 100 µM
CC(C)(C)[Si](C)(C)OC[C@H](/C=C\CCCC(=O)O)NC1(c2ccccc2)c2ccccc2-c2ccccc21,25.5 µM,63.2 µM,45.5 µM,59.8 µM,> 100 µM,30.3 µM,38.8 µM,> 100 µM,–,26.5 µM,97 µM,23.3 µM,31.6 µM,46.2 µM,> 100 µM,30.6 µM,33 µM,37 µM,–
CSCCCNC(=O)[C@H](CSC)NC(=O)c1csc(CCNC(=O)[C@@H](NSc2ccccc2[N+](=O)[O-])C(C)O)n1 (some centres not stated),> 100 µM,> 100 µM,> 100 µM,> 100 µM,> 100 µM,> 100 µM,> 100 µM,> 100 µM,> 100 µM,> 100 µM,> 100 µM,–,> 100 µM,> 100 µM,–,> 100 µM,> 100 µM,> 100 µM,> 100 µM
